Measurements reported in patent US12637427B2, “ALDH-2 inhibitor compounds and methods of use” (Amygdala Neurosciences, Inc., priority 2022, dated 2026).

Experiments:
MAO-A = molecular target: T1, MAO-A (Homo sapiens, UniProt P21397); assay: MAO-A inhibition assay; format: biochemical; conditions: 20 min pre-incubation; 10 μM = highest concentration tested; read-out: Enzymatic Assays IC50 MAO-A
T1 sequence (P21397 1-527): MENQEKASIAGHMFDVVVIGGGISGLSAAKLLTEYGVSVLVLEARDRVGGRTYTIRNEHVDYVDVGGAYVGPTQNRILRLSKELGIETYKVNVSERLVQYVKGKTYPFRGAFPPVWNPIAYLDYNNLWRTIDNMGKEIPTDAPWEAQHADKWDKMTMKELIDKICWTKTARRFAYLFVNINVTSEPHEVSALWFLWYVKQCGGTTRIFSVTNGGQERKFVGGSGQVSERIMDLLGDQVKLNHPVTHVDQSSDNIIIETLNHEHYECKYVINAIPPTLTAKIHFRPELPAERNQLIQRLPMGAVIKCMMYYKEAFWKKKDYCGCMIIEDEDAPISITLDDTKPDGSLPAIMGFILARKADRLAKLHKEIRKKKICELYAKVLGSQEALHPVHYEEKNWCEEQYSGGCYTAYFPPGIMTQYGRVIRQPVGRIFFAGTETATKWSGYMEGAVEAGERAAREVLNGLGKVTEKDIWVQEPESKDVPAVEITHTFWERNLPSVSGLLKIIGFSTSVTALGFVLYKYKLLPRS
Protocol: (§1) D. MAO-A and MAO-B inhibition assays: MAO assays included luminogenic MAO substrate, reaction buffers, Luciferin Detection, and a reconstitution buffer with esterase. The MAO reaction mixture used in the assay included microsome contained MAO-A (2 μg) or MAO-B (10 μg), 160 μM substrate for MAO-A or 16 μM substrate for MAO-B, MAO-A buffer (100 mM Hepes buffer, pH 7.5, 5% glycerol) or MAO-B buffer (100 mM Hepes, pH 7.5, 5% glycerol, 10% dimethyl sulfoxide) in a final volume of 30 μL. After 20 minutes of pre-incubation of the MAO-A or MAO-B enzyme with the test ALDH-2 inhibitor compound, the reaction was initiated by adding enzyme substrate and the […] reaction was allowed to proceed for 60 minutes. Reconstituted Luciferin Detection Reagent (30 μL) was then added is added to simultaneously stop the MAO reaction and convert the methyl ester derivative to luciferin and produce light. The amount of light produced is directly proportional to the activity of MAO. The mixtures were further incubated for 20 minutes and activity of the enzyme was determined using Perkin-Elmer Envision Reader.

HepaRG spheroids = assay: HepaRG 3D spheroid assay; format: cell-based; conditions: minimum effective concentration crossing vehicle control threshold of cell health marker; 100 μM = highest concentration tested
Text: See e.g., Walker et al., “The evolution of strategies to minimise the risk of human drug-induced liver injury (DILI) in drug discovery and development,” (2020) Archives of Toxicology, Vol. 94: 2559-2585, which is hereby incorporated by reference herein in its entirety. […] In applying the HepaRG spheroid assay analysis to determining the hepatoxic liability of ALDH-2 inhibitor compounds, consideration is made of the binding to plasma protein and the limitations to CNS penetration due to the blood-brain barrier.
E. HepaRG® 3D spheroid assay: The HepaRG 3D spheroid assay is described in Walker et al., “The evolution of strategies to minimise the risk of human drug-induced liver injury (DILI) in drug discovery and development,” (2020) Archives of Toxicology, Vol. 94: 2559-2585. Briefly, HepaRG® cells were seeded into ultra-low adhesion 96-well black walled clear bottomed spheroid microplates. […] At the end of the incubation period, the spheroids were loaded with the relevant dye/antibody for each cell health marker (spheroid count, spheroid size, DNA structure, mitochondrial mass, mitochondrial membrane potential, oxidative stress, glutathione content, and cellular ATP). The plates were then scanned using an automated fluorescent cellular imager, ArrayScan® (Thermo Scientific Cellomics).

recombinant human ALDH-1 = molecular target: T2, recombinant human ALDH-1 (Homo sapiens, UniProt P00352); assay: ALDH-1 inhibition assay; format: biochemical; conditions: 60 min pre-incubation; 10 μM = highest concentration tested; read-out: Enzymatic Assays IC50 ALDH-1
T2 sequence (P00352 1-501): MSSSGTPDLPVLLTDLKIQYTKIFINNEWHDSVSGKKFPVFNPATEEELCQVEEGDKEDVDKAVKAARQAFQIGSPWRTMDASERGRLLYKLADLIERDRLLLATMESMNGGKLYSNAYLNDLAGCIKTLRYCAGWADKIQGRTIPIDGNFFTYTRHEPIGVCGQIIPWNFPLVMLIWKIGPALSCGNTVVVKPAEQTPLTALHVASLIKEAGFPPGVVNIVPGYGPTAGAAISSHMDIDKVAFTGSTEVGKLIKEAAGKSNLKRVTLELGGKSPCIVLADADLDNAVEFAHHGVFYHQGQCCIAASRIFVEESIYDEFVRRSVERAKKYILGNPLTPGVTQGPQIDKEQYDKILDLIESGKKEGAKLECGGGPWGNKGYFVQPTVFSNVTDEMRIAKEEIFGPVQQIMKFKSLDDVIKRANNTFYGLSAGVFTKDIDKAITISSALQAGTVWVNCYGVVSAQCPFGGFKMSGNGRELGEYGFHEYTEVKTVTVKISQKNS
Protocol: B. ALDH-1 inhibition assay: The ALDH-1 reaction mixture used in the assay contained 100 μM formaldehyde, 2.5 mM NAD+, 20 mM NaCl, 10 mM MgCl2, 1 mM dithiothreitol (DTT; reducing agent), and 50 nM recombinant human ALDH-1 in 50 mM Hepes buffer, pH 7.5 in a final volume of 10 μL using 384-well Corning 3820 plates. After 60 min of pre-incubation of the test ALDH-2 inhibitor compound with ALDH-1, the reaction was started by adding NAD+ and formaldehyde and the assay reaction mixture was allowed to proceed for 60 minutes. Activity of the ALDH-1 enzyme was determined by monitoring NADH formation using Perkin-Elmer Envision Reader with excitation and emission wavelengths set at 340 and 460 nm, respectively.

MAO-B = molecular target: T3, MAO-B (Homo sapiens, UniProt P27338); assay: MAO-B inhibition assay; format: biochemical; conditions: 20 min pre-incubation; 10 μM = highest concentration tested; read-out: Enzymatic Assays IC50 MAO-B
T3 sequence (P27338 1-520): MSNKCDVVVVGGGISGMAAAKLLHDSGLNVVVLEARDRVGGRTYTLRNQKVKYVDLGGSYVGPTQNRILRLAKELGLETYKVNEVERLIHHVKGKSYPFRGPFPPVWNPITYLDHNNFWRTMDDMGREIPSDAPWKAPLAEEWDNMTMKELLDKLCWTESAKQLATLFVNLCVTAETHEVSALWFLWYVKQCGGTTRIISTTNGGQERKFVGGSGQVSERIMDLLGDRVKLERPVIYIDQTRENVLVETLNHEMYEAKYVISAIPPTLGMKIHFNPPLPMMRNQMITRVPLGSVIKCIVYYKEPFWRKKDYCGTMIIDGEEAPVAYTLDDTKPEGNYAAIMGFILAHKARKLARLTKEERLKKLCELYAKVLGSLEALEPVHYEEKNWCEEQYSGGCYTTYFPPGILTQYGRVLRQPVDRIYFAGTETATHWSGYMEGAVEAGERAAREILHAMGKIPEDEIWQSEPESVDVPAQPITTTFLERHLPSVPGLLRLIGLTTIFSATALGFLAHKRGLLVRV
Protocol: as §1

recombinant human ALDH-2 = molecular target: T4, recombinant human ALDH-2 (Homo sapiens, UniProt P05091); assay: ALDH-2 inhibition assay; format: biochemical; conditions: 60 min pre-incubation; 10 μM = highest concentration tested; read-out: Enzymatic Assays IC50 ALDH2
T4 sequence (P05091 18-517): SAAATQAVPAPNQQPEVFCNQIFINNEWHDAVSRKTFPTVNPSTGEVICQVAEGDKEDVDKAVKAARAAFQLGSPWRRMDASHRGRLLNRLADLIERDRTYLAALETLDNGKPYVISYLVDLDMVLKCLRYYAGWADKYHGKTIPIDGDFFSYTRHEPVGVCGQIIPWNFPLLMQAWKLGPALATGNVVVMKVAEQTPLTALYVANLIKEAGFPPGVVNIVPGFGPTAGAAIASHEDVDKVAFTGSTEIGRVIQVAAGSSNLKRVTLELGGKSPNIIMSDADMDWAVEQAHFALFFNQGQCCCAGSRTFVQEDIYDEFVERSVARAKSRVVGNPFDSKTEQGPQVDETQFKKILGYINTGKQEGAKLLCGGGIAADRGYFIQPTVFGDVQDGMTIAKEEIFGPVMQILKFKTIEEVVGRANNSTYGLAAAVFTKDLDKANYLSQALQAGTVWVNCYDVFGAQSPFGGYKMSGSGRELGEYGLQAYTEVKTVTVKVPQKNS
Protocol: A. ALDH-2 inhibition assay: The ALDH-2 reaction mixture used in the assay contained 125 μM formaldehyde, 75 μM NAD+, 20 mM NaCl, 10 mM MgCl2, and 20 nM recombinant human ALDH-2 in 50 mM Hepes buffer, pH 7.5 in a final volume of 10 μL using 384-well Corning 3820 plates. After 60 min of pre-incubation of the test ALDH-2 inhibitor compound with ALDH-2, the reaction was started by adding NAD+ and formaldehyde and the assay reaction mixture was allowed to proceed for 60 minutes. Activity of the ALDH-2 enzyme was determined by monitoring NADH formation using Perkin-Elmer Envision Reader with excitation and emission wavelengths set at 340 and 460 nm, respectively.

recombinant human ALDH-3 = molecular target: T5, recombinant human ALDH-3 (Homo sapiens, UniProt P30838); assay: ALDH-3 inhibition assay; format: biochemical; conditions: 60 min pre-incubation; 10 μM = highest concentration tested; read-out: Enzymatic Assays IC50 ALDH-3
T5 sequence (P30838 1-453): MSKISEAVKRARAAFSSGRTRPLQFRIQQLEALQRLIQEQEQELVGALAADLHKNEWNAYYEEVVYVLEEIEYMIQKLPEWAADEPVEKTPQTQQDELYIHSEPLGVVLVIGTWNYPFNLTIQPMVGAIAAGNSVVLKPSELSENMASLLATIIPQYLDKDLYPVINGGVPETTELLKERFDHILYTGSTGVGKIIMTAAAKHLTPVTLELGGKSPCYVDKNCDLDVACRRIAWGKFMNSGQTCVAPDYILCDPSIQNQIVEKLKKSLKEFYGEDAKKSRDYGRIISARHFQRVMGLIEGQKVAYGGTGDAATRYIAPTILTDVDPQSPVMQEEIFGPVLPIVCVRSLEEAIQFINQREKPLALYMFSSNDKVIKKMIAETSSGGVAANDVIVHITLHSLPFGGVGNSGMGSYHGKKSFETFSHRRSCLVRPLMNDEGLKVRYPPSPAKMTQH
Protocol: ALDH-3 inhibition assay: The ALDH-3 reaction mixture used in the assay contained 200 μM benzaldehyde, 2.5 mM NAD+, 20 mM NaCl, 10 mM MgCl2, and 10 nM recombinant human ALDH-3 in 50 mM Hepes buffer, pH 7.5 in a final volume of 10 μL using 384-well Corning 3820 plates. After 60 min of pre-incubation of the test ALDH-2 inhibitor compound with ALDH-3, the reaction was started by adding NAD+ and benzaldehyde and the assay reaction mixture was allowed to proceed for 60 minutes. Activity of the ALDH-3 enzyme was determined by monitoring NADH formation using Perkin-Elmer Envision Reader with excitation and emission wavelengths set at 340 and 460 nm, respectively.

[1] = O'Malley et al. 2021; cited from earlier work

Structure (SMILES) | IC50 (MAO-A) [µM] | HepaRG 3D Spheroid MEC (HepaRG spheroids) | IC50 (recombinant human ALDH-1) [µM] | IC50 (MAO-B) [µM] | IC50 (recombinant human ALDH-2) [µM] | IC50 (recombinant human ALDH-3) [µM] | hepatotoxicity in humans [1]
Cc1cccc(Cl)c1C(=O)NCc1cnc(-c2cccc(=O)[nH]2)nc1 [(1n), 2-Chloro-6-methyl-N-((2-(6-oxo-1,6-dihydropyridin-2-yl)pyrimidin-5-yl)methyl)benzamide] | > 10 | 7.48 µM | > 10 | > 10 | 0.031 | – | –
O=C(NCc1ccc(-c2[nH]c(=O)ccc2F)nc1)c1c(Cl)cccc1Cl [(1i), 2,6-dichloro-N-((3′-fluoro-6′-oxo-1′,6′-dihydro-[2,2′-bipyridin]-5-yl)methyl)benzamide] | > 10 | 15.3 µM | > 10 | > 10 | 0.004 | – | –
O=C(NCc1ccc(-c2[nH]c(=O)ccc2F)cc1)c1ccccc1Cl [Compound (1f), 2-Chloro-N-(4-(3-fluoro-6-oxo-1,6-dihydropyridin-2-yl)benzyl)benzamide] | > 10 | – | > 10 | > 10 | 0.329 | > 10 | –
Cc1nccc(Cl)c1C(=O)NCc1ccc(-c2cccc(=O)[nH]2)nc1 [(1m), 4-Chloro-2-methyl-N-((6′-oxo-1′,6′-dihydro-[2,2′-bipyridin]-5-yl)methyl)nicotinamide] | > 10 | – | > 10 | > 10 | 0.98 | > 10 | –
O=C(NCc1ccc(-c2cc[nH]c(=O)c2)cc1)c1c(Cl)cccc1Cl [2,6-dichloro-N-[4-(2-oxo-1,2-dihydro-pyridin-4-yl)-benzyl]-benzamide] | – | – | – | – | – | – | high levels of hepatotoxicity
Cc1cccc(Cl)c1C(=O)NCc1ccc(-c2[nH]c(=O)ccc2F)cc1 [Compound (1e), 2-Chloro-N-(4-(3-fluoro-6-oxo-1,6-dihydropyridin-2-yl)benzyl)-6-methylbenzamide] | > 10 | 50.4 µM | > 10 | > 10 | 0.009 | – | –
Cc1nccc(Cl)c1C(=O)NCc1ccc(-c2[nH]c(=O)ccc2F)cc1 [(1h), 4-Chloro-N-(4-(3-fluoro-6-oxo-1,6-dihydropyridin-2-yl)benzyl)-2-methylnicotinamide] | > 10 | 53.9 µM | > 10 | > 10 | 0.1 | – | –
O=C(NCc1ccc(-c2cccc(=O)[nH]2)nc1)c1c(Cl)cccc1Cl [(1j), 2,6-Dichloro-N-((6′-oxo-1′,6′-dihydro-[2,2′-bipyridin]-5-yl)methyl)benzamide] | > 10 | 5.06 µM | > 10 | > 10 | 0.007 | – | –
O=C(NCc1ccc(-c2[nH]c(=O)ccc2F)cc1)c1c(Cl)cccc1Cl [Compound (1d), 2,6-dichloro-N-(4-(3-fluoro-6-oxo-1,6-dihydropyridin-2-yl)benzyl)benzamide] | > 10 | No Effect | > 10 | > 10 | 0.027 | – | –
